Molecules are shown by their SMILES.

In test [1] the test system is HCT-116. Put plainly: Cellular proliferation assay (Alamar blue), HCT-116. It counts as cell-based. The following applies: Homo sapiens, 10% FCS, 72 hours with compound, Alamar blue 4 h. The method, boiled down:
(§1)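 After a 24 h compound-free attachment period, cells in 10% FCS medium are treated for 72 h at 37° C. Resazurin conversion is then quantified by fluorescence, with dye incubation lasting 4 h for HCT-116, 6 h for U87-MG and 24 h for A2780 or MDA-MB-231.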

The test system of test [2] is MDA-MB-231. Put plainly: Cellular proliferation assay (Alamar blue), MDA-MB-231. It counts as cell-based. The following applies: Homo sapiens, 10% FCS, 72 hours with compound, Alamar blue 24 h, read-out: MDA/MB231 (cellular proliferation assay, Table 4) (converted). In a few lines: as §1
The target in test [3] is CDK1/CyclinB (h) (Homo sapiens, UniProt P06493). As to the kind of experiment: CDK1/CyclinB human kinase inhibition, Invitrogen's FRET assay (Z'lyte). It counts as biochemical. Conditions: read-out: CDK1 pIC50 (converted). The method, boiled down: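 Read-out is the 460 nm/538 nm emission ratio (390 nm excitation) after a 60 min protease development step. Before that, 10 μM ATP and 2 μM Z'lyte Ser/Thr peptide 12 react 60 min at room temperature with 0.2 μg/ml human CDK1/CyclinB in Hepes pH 7.5 containing MgCl2, EGTA and Brij-35.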

The subject of test [4] is U87-MG. Put plainly: Cellular proliferation assay (Alamar blue), U87-MG. Type of test: cell-based. The following applies: Homo sapiens, U-87 MG; 10% FCS; 72 hours with compound; Alamar blue 6 h; read-out: U87-MG (cellular proliferation assay, Table 4) (converted). The method, boiled down:
as §1

Test [5] deals with PLK2 (h) (Homo sapiens, UniProt Q9NYY3). Put plainly: PLK2 human kinase inhibition, SPA. It counts as biochemical. The following applies: read-out: PLK2 pIC50 (converted). In a few lines: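 33P incorporation into a biotinylated peptide (2 μM) was captured on streptavidin PVT beads and imaged on Leadseeker. Enzyme at 30 μg/ml, ATP 0.1 μM with 2 nM [γ-33P]ATP, Hepes pH 8.0 with MnCl2 and DTT. Incubation was 20 min at room temperature.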

In test [6] the target is GSK3β (h) (Homo sapiens, UniProt P49841). Put plainly: GSK-3β human kinase inhibition, SPA. Type of test: biochemical. Conditions: read-out: GSK3b pIC50 (converted). The method, boiled down:
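Radiometric: 33P-labelled peptide captured on streptavidin SPA beads after EDTA stop and imaged on Leadseeker. Reaction ran 1 h at RT, 1 μM cold ATP with 2 nM [γ-33P]ATP, 1 μM biotin-peptide substrate, human GSK3β 1 μg/ml, pH 7.4 Tris buffer.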

Test [7] deals with H1299. As to the kind of experiment: Cellular proliferation assay (Alamar blue), H1299. The following applies: Homo sapiens, NCI-H1299; 10% FCS; 72 hours with compound; Alamar blue 4 h. Type of test: cell-based. The method, boiled down:
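This proliferation assay on NCI-H1299 cells used an initial 24-hour compound-free incubation after seeding, followed by 72 hours of compound treatment with 10% FCS serum at 37° C. and 5% (v/v) CO2. Viable cells were quantified by a 4 h Alamar blue incubation and fluorescent plate reading at 544 nm/590 nm, and effects were expressed relative to control cells.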

Test [8] relates to A2780. As to the kind of experiment: Cellular proliferation assay (Alamar blue), A2780. Type of test: cell-based. The following applies: Homo sapiens, 10% FCS, 72 hours with compound, Alamar blue 24 h, read-out: A2780 (cellular proliferation assay, Table 4) (converted). The method, boiled down:
as §1

For test [9], the target named is PLK3 (h) (Homo sapiens, UniProt Q9H4B4). As to the kind of experiment: PLK3 human kinase inhibition, SPA. The following applies: read-out: PLK3 pIC50 (converted). It counts as biochemical. In a few lines:
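Radiometric scintillation proximity format at pH 8.0 (Hepes, MnCl2, DTT). The 2 μM biotin-peptide substrate is phosphorylated by PLK3 (h) (30 μg/ml) using 0.1 μM ATP traced with 33P, for 20 min at room temperature. EDTA stop; phosphopeptide captured on streptavidin beads and imaged.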

Test [10] deals with CDK4/CyclinD1 (h) (Homo sapiens, UniProt P11802). Put plainly: CDK4/CyclinD1 human kinase inhibition, SPA with GST-pRb substrate. It counts as biochemical. Conditions: read-out: CDK4 pIC50 (converted). The method, boiled down: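 Scintillation proximity format: after EDTA/Triton stop containing glutathione SPA beads, 33P incorporation was counted. The reaction ran 60 min at room temperature in Hepes pH 7.5 with NaF, MgCl2, DTT, using 2.5 μg/ml human CDK4/CyclinD1, 40 μg/ml GST-pRb substrate and 2 nM [γ-33P]ATP.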
CDK4/CyclinD1 (h), sequence (P11802 whole entry): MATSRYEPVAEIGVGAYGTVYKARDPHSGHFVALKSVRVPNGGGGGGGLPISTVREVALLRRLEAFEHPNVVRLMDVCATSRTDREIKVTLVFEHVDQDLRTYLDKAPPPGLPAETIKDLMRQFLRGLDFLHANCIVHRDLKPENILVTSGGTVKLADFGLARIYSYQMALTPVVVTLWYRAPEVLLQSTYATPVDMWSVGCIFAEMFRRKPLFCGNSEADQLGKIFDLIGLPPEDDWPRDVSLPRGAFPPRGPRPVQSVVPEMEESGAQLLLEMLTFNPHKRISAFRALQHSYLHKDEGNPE
CDK4/CyclinD1 (h), sequence (P24385 whole entry partner): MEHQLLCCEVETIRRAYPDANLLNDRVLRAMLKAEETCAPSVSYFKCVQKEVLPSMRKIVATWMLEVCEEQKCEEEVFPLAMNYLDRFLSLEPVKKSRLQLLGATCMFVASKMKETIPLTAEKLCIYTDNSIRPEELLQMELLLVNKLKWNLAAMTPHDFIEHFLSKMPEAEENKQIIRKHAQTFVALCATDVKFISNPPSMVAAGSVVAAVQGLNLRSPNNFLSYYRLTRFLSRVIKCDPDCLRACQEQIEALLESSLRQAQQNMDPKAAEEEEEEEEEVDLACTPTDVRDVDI

GSK3β (h), sequence (P49841 whole entry): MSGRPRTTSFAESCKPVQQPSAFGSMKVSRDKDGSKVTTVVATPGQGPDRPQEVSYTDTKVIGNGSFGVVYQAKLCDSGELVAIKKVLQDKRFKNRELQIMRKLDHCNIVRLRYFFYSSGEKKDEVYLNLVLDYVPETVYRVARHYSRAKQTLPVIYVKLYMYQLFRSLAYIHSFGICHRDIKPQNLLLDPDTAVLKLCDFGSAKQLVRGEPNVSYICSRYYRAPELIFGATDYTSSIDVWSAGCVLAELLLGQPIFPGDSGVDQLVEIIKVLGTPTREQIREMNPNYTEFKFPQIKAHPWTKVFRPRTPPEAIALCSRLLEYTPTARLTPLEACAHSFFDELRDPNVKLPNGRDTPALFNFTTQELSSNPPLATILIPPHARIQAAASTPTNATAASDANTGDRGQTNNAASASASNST
PLK2 (h), sequence (Q9NYY3 whole entry): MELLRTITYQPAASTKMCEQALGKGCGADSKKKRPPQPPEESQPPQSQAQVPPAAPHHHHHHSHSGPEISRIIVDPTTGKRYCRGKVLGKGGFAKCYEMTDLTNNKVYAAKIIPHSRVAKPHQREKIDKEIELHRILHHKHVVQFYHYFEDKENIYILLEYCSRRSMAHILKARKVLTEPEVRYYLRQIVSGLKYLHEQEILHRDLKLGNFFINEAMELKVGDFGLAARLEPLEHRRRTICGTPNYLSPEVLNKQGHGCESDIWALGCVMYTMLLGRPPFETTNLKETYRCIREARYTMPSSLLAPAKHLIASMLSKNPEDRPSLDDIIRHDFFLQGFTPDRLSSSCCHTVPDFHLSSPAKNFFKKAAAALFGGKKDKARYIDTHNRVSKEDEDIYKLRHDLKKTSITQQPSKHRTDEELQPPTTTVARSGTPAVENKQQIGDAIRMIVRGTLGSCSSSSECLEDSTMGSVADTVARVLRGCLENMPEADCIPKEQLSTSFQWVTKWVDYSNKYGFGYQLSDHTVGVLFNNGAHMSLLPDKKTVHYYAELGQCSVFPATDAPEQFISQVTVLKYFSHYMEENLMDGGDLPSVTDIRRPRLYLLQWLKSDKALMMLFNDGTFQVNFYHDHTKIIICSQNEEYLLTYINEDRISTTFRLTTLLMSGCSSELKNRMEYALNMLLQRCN
CDK1/CyclinB (h), sequence (P06493 whole entry): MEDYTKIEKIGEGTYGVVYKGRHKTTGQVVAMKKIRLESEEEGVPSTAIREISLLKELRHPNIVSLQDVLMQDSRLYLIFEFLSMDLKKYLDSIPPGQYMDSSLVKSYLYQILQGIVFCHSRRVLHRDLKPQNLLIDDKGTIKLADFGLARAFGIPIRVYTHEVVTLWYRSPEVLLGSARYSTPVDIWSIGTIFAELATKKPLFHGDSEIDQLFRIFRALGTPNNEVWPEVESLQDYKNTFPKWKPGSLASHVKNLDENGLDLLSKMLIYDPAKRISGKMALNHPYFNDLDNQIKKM
CDK1/CyclinB (h), sequence (P14635 whole entry partner): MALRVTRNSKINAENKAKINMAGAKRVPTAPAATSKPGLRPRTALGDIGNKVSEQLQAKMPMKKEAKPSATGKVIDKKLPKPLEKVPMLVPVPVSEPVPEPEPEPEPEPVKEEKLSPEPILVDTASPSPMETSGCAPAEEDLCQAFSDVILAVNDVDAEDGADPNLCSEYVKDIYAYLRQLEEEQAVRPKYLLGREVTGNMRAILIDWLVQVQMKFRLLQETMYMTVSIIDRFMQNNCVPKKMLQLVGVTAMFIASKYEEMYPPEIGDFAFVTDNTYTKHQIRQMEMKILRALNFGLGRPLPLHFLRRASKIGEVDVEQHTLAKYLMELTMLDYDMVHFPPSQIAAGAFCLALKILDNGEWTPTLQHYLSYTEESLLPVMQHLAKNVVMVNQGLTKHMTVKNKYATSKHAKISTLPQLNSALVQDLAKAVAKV
PLK3 (h), sequence (Q9H4B4 whole entry): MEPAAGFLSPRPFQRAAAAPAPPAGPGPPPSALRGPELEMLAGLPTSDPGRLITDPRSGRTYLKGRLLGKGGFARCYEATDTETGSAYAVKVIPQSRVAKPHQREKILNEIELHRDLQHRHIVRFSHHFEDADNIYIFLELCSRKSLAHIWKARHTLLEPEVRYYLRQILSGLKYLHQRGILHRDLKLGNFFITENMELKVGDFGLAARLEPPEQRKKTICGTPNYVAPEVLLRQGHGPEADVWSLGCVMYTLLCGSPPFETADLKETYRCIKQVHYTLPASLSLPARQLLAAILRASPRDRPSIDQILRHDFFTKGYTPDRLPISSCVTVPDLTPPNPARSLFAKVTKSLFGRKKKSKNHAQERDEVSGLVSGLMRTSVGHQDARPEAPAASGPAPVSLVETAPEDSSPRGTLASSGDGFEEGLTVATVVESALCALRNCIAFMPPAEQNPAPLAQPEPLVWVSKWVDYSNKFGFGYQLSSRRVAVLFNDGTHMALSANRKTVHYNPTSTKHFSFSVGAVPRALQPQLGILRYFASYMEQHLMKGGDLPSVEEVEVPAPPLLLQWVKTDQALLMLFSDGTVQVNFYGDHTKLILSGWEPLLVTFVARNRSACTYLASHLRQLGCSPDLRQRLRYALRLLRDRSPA

Consider `CC(C)Nc1cc2cc(c1)Nc1nccc(n1)-c1ccc(cc1)CN(C)CCCNC(=O)[C@@H]1CCCN1C2` [Compound 151], for which the IC50 in test [1] was 3.55 µM; in test [2] it was > 10 µM; in test [3], > 10 µM; in test [4] it was 7.59 µM; in test [5], > 3.02 µM; in test [6], > 10 µM. Moreover, the IC50 in test [7], in test [8], in test [9] and in test [10] was > 10 µM in each case.

As to `C[C@@H]1NCc2ccc(cc2)Nc2nccc(n2)-c2cccc(c2)CNC1=O` [Compound 190], the IC50 is > 10 µM in test [1]; > 10 µM in test [2]; 6.46 µM in [3]; > 10 µM in test [4]; > 10 µM in [5]; 1.29 µM in test [6]. Moreover, the IC50 in test [7], in [8], in [9] and in test [10] was > 10 µM each time.

In the case of `O=C1NCc2cccc(c2)-c2ccnc(n2)Nc2ccc(cc2)CN2CCC[C@@H]12` [Compound 54], the IC50 in test [1], in test [2], in test [3], in test [4], in test [5] and in test [6] was > 10 µM each time. The IC50 in test [7] is > 10 µM; in test [8] it was > 10 µM; in test [9], > 10 µM; in [10], 7.41 µM.

In the case of `COc1cc2cc(c1)Nc1nccc(n1)-c1ccc(cc1)CN(C)CCNC(=O)C1CCN(CC1)C2` [Compound 62], the IC50 was 2.75 µM in test [1]; 9.12 µM in test [2]; > 10 µM in [3]; 6.92 µM in test [4]; > 10 µM in test [5]; 1.91 µM in test [6]. The IC50 in test [7] was > 10 µM; in test [8] it was 5.89 µM; in test [9], 9.77 µM; in [10] it was > 10 µM.

As for `O=C1CN2CCN(CC2)Cc2cc(ccc2N2CCOCC2)Nc2nccc(n2)-c2ccc(cc2)CN1` [Compound 194], the IC50 in [1] was > 10 µM; in test [2] it was > 10 µM; in test [3], > 10 µM; in test [4], > 10 µM; in test [5], > 10 µM; in test [6], 6.03 µM. Also, the IC50 in test [7] was > 10 µM; in test [8], > 10 µM; in [9] it was > 10 µM; in test [10], 1.7 µM.

For `O=C1NCc2cccc(c2)-c2ccnc(n2)Nc2cc(ccc2Cl)CN2CCC[C@@H]12` [Compound 51], the IC50 in [1], in [2], in [3], in test [4], in test [5] and in test [6] was > 10 µM throughout. Besides, the IC50 in test [7], in test [8], in test [9] and in test [10] was > 10 µM in each case.

In the case of `CN1CCNC(=O)[C@@H]2CCCN2Cc2cccc(c2)Nc2nccc(n2)-c2ccc(cc2)C1` [Compound 160], the IC50 in test [1] was > 10 µM; in test [2], > 10 µM; in test [3] it was > 10 µM; in test [4], > 10 µM; in test [5] it was > 3.02 µM; in test [6], 5.5 µM. The IC50 was > 10 µM in test [7], > 10 µM in test [8], 9.33 µM in test [9] and > 10 µM in [10].

Regarding `O=C(NC1CCOCC1)c1cc2cc(c1)Nc1nccc(n1)-c1cccc(c1)CNC(=O)[C@@H]1CCCN1C2` [Compound 37], the IC50 was > 10 µM in test [1]; > 10 µM in test [2]; 5.37 µM in test [3]; > 10 µM in test [4]; > 10 µM in test [5]; 0.676 µM in [6]. Moreover, the IC50 in [7], in [8], in [9] and in test [10] was > 10 µM each time.

As to `COc1cc2cc(c1)Nc1nccc(n1)-c1ccc(OC)c(c1)CN(C)CCNC(=O)CN1CCN(CC1)C2` [Compound 127], the IC50 in test [1] was 6.46 µM; in test [2], > 10 µM; in [3], > 10 µM; in test [4] it was > 10 µM; in test [5] it was > 10 µM; in test [6] it was 5.01 µM. Besides, the IC50 in test [7], in test [8], in test [9] and in [10] was > 10 µM in each case.

For `COc1ccc2cc1CN(C)CCNC(=O)[C@@H]1CCCN1Cc1cc(cc(N3CCOCC3)c1)Nc1nccc-2n1` [Compound 152], the IC50 was > 10 µM in test [1]; > 10 µM in test [2]; > 10 µM in [3]; > 10 µM in [4]; > 10 µM in [5]; 5.13 µM in test [6]. Also, the IC50 in [7], in [8], in test [9] and in test [10] was > 10 µM throughout.

Take `CN1CCNC(=O)CN2CCN(CC2)Cc2cccc(c2)Nc2nccc(n2)-c2ccc(cc2)C1` [Compound 134]: the IC50 in [1] is 5.25 µM; in test [2], > 10 µM; in test [3], 4.79 µM; in test [4] it was > 10 µM; in [5], 2.88 µM; in test [6], 1.32 µM. In addition, the IC50 in [7], in test [8], in test [9] and in test [10] was > 10 µM in each case.

As for `O=C1NCc2cc(ccc2N2CCOCC2)Nc2nccc(n2)-c2cccc(c2)CCCN2CCC[C@@H]12` [Compound 149], the IC50 in test [1] is 0.117 µM; in test [2], 0.501 µM; in test [3], 0.00363 µM; in [4], 0.251 µM; in [5] it was > 10 µM; in test [6], 0.117 µM. The IC50 in test [7] is 0.832 µM; in test [8] it was 0.245 µM; in [9], > 10 µM; in test [10], 0.0724 µM.

In the case of `COc1ccc2cc1CN(C)CCNC(=O)C1CCN(CC1)Cc1cc(NCCc3ccccc3)cc(c1)Nc1nccc-2n1` [Compound 74], the IC50 is 4.68 µM in test [1]; 5.89 µM in [2]; > 10 µM in test [3]; 3.98 µM in test [4]; > 10 µM in test [5]; > 10 µM in test [6]. The IC50 in test [7] is > 10 µM; in test [8], 3.02 µM; in [9], > 10 µM; in [10], > 10 µM.

Regarding `COc1ccc2cc1CN(C)CCCNC(=O)[C@H](CO)NCc1cccc(c1)Nc1nccc-2n1` [Compound 118], the IC50 was > 10 µM in test [1]; > 10 µM in test [2]; > 10 µM in test [3]; > 10 µM in test [4]; > 3.02 µM in [5]; > 10 µM in [6]. Besides, the IC50 in [7], in test [8], in test [9] and in [10] was > 10 µM each time.

In the case of `COc1ccc2cc1CN(C)CCNC(=O)CN1CCN(CC1)Cc1cc(NCCc3ccccc3)cc(c1)Nc1nccc-2n1` [Compound 138], the IC50 in test [1] was 3.09 µM; in [2] it was 5.89 µM; in test [3], > 10 µM; in test [4], 3.24 µM; in [5], > 3.02 µM; in test [6], > 10 µM. Moreover, the IC50 was 10 µM in [7], 5.5 µM in test [8], > 10 µM in test [9] and > 10 µM in test [10].

The record behind these values is patent publication US8609836B2, “4-aryl-2-anilino-pyrimidines” (Janssen Pharmaceutica NV, priority 2008, dated 2013).
